Measurements as given in ChEMBL document CHEMBL1201862, “PubChem BioAssay data set” (2004).
Calls of active or inactive are those of the source.

Experiments:
[1] = HEp-2 cell cytotoxicity, dose response, cytotoxicity control for RSV inhibitor project, HTS (AID 2410); type: functional; settings: human respiratory syncytial virus
[2] = target: Peroxisome proliferator-activated receptor gamma/Nuclear receptor corepressor 2 (Homo sapiens, UniProt P37231+Q9Y618); type: functional
[3] = target: G-protein coupled receptor 55 (Homo sapiens, UniProt Q9Y2T6); assay: GPR55 antagonists blocking LPI-driven arrestin recruitment, primary screen, imaging, U2OS, beta-arrestin-GFP, LPI agonist (AID 2013); type: functional;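 further: antagonist potency measured as reduced agonist-driven arrestin aggregation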
[4] = target: Photoreceptor-specific nuclear receptor (Homo sapiens, UniProt Q9Y5X4); type: functional;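 further: potency for compounds that break the NR2E3 corepressor complex and count as activators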
[5] = target: Intestinal-type alkaline phosphatase (Homo sapiens, UniProt P09923); assay: activation of human intestinal alkaline phosphatase – biochemical, dose response (AID 488873); type: functional
[6] = target: Alkaline phosphatase, placental type (Homo sapiens, UniProt P05187); assay: PLAP enzyme inhibitors, confirmation, biochemical, luminescence (AID 1512); type: functional
[7] = target: T1, Rac GTPase-activating protein 1 (Homo sapiens, UniProt Q9H0H5); assay: MgcRacGAP GTPase-activating activity inhibitors, confirmation, biochemical, ADP Hunter fluorescence, primary and confirmatory (AID 624330); type: functional
T1 sequence (Q9H0H5 whole entry): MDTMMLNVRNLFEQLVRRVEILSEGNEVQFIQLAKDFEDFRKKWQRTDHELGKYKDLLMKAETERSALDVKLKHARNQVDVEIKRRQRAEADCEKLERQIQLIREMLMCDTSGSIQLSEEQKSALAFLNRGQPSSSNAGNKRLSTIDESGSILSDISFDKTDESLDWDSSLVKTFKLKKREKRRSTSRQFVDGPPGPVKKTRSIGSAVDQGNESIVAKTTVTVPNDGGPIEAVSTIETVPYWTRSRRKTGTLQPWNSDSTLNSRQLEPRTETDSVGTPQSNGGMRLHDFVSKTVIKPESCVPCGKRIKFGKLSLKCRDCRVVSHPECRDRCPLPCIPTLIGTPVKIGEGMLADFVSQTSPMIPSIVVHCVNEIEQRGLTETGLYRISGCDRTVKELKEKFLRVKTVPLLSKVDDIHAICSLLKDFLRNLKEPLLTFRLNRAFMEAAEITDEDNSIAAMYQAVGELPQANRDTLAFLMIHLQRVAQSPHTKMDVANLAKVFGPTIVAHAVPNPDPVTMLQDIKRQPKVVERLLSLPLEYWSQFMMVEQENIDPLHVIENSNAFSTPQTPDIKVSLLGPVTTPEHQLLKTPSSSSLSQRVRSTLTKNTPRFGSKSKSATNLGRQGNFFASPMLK

[8] = target: Intestinal-type alkaline phosphatase (Mus musculus, UniProt P24822); assay: mouse intestinal alkaline phosphatase activators, dose response, biochemical, luminescence, uHTS hits (AID 488783); type: functional
[9] = target: T2, Alkaline phosphatase, tissue-nonspecific isozyme (Homo sapiens, UniProt P05186); assay: TNAP enzyme activators, dose response, selectivity assay for mouse IAP activator project, biochemical, TNAP isozyme, mouse IAP uHTS hits (AID 488880); type: functional
T2 sequence (P05186 whole entry): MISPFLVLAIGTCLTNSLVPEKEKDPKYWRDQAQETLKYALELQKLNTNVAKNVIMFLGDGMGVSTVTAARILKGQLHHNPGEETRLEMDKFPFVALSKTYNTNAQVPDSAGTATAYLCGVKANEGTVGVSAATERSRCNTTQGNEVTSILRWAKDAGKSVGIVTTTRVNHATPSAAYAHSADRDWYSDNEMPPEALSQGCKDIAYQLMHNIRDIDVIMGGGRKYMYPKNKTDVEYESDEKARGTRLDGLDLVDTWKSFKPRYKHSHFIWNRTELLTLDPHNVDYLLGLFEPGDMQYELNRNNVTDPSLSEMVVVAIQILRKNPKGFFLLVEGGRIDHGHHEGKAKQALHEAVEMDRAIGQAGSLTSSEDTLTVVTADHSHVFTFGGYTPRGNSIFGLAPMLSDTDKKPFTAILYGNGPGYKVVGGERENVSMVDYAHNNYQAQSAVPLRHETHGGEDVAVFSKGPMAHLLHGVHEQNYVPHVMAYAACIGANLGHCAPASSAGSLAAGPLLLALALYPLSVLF

[10] = target: T2, Alkaline phosphatase, tissue-nonspecific isozyme; assay: human TNAP enzyme inhibitors, SAR follow-up, biochemical, luminescent, dose response (AID 1056)
[11] = target: 1-phosphatidylinositol 4,5-bisphosphate phosphodiesterase beta-3 (Homo sapiens, UniProt Q01970); assay: Fluorescence-based biochemical high throughput dose response assay to identify inhibitors of phospholipase C isozymes (PLC-B3).
[12] = target: T3, Long-chain-fatty-acid--AMP ligase FadD28 (Mycobacterium tuberculosis, UniProt P9WQ59); assay: Fluorescence polarization aasay to screen for inhibitors that compete for the binding of FadD28 to a bisubstrate Measured in Biochemical System Using Plate Reader - 2147-01_Inhibitor_Dose_CherryPick_Activity.; type: functional, Mycobacterium tuberculosis H37Rv
T3 sequence (P9WQ59 whole entry): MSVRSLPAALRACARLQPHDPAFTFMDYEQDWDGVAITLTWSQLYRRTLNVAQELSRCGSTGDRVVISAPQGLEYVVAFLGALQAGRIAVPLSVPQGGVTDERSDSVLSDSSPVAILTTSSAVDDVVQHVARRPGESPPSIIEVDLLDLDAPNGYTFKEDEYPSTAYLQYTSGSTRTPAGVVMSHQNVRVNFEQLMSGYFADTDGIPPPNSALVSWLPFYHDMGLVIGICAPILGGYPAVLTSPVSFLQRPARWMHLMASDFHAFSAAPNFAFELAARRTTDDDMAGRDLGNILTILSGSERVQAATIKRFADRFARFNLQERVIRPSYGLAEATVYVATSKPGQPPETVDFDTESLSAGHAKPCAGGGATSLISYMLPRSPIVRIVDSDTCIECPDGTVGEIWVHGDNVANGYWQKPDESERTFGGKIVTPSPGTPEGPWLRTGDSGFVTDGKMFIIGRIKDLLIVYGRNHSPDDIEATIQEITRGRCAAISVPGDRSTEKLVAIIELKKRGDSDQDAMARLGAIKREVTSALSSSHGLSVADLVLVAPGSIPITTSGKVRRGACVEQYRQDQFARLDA

ORF 73 = target: T4, ORF 73 (Human herpesvirus 8, UniProt O40947); assay: inhibitors of C-LANA binding to LBS DNA, dose response, biochemical, fluorescence polarization, cherry-picked samples (AID 504725); parameters: species or system Human gammaherpesvirus 8;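 further: fluorescence polarization of a labeled DNA duplex reporting LANA DNA binding; potency is for inhibitors that block LANA binding to the DNA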
T4 sequence (O40947 whole entry): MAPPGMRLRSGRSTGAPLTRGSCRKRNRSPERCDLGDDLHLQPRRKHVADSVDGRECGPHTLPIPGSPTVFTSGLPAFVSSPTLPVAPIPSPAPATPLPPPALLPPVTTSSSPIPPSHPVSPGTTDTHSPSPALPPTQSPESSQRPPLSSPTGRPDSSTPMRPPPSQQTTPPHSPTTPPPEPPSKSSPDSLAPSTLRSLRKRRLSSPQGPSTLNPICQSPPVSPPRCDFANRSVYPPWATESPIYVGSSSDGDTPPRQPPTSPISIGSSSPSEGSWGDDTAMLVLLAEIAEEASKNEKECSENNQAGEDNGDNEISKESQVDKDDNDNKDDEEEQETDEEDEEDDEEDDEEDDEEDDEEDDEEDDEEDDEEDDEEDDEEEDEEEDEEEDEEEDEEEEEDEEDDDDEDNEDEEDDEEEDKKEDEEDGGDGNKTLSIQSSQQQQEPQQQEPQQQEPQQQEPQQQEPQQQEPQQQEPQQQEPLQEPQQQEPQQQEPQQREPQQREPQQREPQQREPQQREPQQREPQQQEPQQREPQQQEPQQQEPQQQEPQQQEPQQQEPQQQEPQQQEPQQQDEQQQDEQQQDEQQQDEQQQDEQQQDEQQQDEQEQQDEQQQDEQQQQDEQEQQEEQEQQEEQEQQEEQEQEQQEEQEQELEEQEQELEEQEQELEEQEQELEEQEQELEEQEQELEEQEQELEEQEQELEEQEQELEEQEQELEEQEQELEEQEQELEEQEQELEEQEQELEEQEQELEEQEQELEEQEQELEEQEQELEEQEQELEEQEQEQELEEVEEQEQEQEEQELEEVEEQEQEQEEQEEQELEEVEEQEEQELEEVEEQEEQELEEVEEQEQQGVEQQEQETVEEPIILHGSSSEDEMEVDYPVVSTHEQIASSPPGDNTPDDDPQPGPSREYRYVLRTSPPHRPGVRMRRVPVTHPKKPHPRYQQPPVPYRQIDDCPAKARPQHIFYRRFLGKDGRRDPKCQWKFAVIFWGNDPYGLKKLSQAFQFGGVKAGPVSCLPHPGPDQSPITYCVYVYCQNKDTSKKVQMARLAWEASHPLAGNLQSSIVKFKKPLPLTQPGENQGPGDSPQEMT

[13] = target: T5, Endoribonuclease toxin MazF (Escherichia coli K-12, UniProt P0AE70); assay: MazF toxin RNase activators, dose response, biochemical, fluorescence, single-stranded RNA substrate, uHTS hits (AID 588481); type: functional
T5 sequence (P0AE70 whole entry): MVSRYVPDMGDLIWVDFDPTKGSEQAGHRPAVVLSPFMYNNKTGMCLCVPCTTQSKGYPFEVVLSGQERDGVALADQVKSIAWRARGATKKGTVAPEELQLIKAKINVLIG

Troponin, cardiac muscle = Troponin, cardiac muscle (Homo sapiens, UniProt P19429+P45379+P63316); assay: inhibitors of cardiac thin filament calcium sensitivity, dose response, biochemical, fluorescence, cardiac regulated thin filaments, triplicate IC50 (AID 504742); type: protein-complex assay
Genome polyprotein = Genome polyprotein (dengue virus type 2, UniProt P29990); assay: Dengue-2 NS5 methyltransferase inhibitors, primary screen, biochemical, confirmation dose response (AID 588689); type: functional
[14] = target: T5, Endoribonuclease toxin MazF; assay: fluorescent RNA oligo signal without MazF, dose response, counter-screen for MazEF activator project, biochemical, fluorescence, single-stranded RNase substrate (AID 588502); type: functional
Caspase-6 = target: T6, Caspase-6 (Homo sapiens, UniProt P55212); assay: human caspase-6 inhibitors, dose response, biochemical, VEID-R110 fluorescence, cherry-pick (AID 720632)
T6 sequence (P55212 whole entry): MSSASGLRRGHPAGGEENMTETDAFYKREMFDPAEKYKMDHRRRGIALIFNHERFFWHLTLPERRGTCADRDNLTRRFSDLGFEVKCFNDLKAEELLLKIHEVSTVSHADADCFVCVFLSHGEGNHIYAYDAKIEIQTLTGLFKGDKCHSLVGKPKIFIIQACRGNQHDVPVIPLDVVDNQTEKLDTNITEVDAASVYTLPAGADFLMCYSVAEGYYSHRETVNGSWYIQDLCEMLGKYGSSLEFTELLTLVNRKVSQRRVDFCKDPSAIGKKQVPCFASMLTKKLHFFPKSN

[15] = target: Induced myeloid leukemia cell differentiation protein Mcl-1 (Homo sapiens, UniProt Q07820); type: functional
Caspase-7 = Caspase-7 (Homo sapiens, UniProt P55210); assay: human caspase-7 inhibitors, dose response, selectivity assay for caspase-6 inhibitor project, biochemical, DEVD-R110 fluorescence, cherry-pick (AID 743295)
[16] = target: 1-phosphatidylinositol 4,5-bisphosphate phosphodiesterase gamma-1 (Homo sapiens, UniProt P19174); assay: Counterscreen for inhibitors of phospholipase C isozymes (PLC-B3): Fluorescence-based biochemical high throughput dose response assay to identify inhibitors of phospholipase C isozymes (PLC-gamma1).

Sequence of Alkaline phosphatase, placental type (P05187 whole entry): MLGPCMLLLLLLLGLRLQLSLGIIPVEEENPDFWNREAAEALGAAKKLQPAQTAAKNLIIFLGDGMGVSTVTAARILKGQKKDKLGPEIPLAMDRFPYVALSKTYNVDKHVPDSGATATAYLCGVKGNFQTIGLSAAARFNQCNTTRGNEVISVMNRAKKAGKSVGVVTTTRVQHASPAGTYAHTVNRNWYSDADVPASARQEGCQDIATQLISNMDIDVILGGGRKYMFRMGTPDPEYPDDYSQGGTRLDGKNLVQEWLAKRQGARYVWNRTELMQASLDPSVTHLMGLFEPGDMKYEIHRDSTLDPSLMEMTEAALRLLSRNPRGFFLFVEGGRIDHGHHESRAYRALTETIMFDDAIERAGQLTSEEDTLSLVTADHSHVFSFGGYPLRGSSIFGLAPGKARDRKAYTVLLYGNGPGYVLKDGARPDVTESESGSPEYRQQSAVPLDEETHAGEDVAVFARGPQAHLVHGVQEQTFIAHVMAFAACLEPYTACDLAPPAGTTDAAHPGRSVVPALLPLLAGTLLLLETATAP
Sequence of Peroxisome proliferator-activated receptor gamma/Nuclear receptor corepressor 2 (P37231 whole entry): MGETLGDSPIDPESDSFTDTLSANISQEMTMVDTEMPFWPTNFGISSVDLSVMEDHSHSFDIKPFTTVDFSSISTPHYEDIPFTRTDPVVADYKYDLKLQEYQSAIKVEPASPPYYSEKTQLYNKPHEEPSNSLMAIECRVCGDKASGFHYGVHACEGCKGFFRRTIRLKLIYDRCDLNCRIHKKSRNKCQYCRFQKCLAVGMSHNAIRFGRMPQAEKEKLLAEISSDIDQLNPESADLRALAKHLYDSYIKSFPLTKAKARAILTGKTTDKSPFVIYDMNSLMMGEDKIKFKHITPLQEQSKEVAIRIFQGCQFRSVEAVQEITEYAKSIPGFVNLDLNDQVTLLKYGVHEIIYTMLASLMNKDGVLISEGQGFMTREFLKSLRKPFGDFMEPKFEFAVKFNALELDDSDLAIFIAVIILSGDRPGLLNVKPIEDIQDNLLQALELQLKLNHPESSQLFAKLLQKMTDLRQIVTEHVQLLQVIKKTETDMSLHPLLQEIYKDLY
Sequence of Peroxisome proliferator-activated receptor gamma/Nuclear receptor corepressor 2 (Q9Y618 whole entry): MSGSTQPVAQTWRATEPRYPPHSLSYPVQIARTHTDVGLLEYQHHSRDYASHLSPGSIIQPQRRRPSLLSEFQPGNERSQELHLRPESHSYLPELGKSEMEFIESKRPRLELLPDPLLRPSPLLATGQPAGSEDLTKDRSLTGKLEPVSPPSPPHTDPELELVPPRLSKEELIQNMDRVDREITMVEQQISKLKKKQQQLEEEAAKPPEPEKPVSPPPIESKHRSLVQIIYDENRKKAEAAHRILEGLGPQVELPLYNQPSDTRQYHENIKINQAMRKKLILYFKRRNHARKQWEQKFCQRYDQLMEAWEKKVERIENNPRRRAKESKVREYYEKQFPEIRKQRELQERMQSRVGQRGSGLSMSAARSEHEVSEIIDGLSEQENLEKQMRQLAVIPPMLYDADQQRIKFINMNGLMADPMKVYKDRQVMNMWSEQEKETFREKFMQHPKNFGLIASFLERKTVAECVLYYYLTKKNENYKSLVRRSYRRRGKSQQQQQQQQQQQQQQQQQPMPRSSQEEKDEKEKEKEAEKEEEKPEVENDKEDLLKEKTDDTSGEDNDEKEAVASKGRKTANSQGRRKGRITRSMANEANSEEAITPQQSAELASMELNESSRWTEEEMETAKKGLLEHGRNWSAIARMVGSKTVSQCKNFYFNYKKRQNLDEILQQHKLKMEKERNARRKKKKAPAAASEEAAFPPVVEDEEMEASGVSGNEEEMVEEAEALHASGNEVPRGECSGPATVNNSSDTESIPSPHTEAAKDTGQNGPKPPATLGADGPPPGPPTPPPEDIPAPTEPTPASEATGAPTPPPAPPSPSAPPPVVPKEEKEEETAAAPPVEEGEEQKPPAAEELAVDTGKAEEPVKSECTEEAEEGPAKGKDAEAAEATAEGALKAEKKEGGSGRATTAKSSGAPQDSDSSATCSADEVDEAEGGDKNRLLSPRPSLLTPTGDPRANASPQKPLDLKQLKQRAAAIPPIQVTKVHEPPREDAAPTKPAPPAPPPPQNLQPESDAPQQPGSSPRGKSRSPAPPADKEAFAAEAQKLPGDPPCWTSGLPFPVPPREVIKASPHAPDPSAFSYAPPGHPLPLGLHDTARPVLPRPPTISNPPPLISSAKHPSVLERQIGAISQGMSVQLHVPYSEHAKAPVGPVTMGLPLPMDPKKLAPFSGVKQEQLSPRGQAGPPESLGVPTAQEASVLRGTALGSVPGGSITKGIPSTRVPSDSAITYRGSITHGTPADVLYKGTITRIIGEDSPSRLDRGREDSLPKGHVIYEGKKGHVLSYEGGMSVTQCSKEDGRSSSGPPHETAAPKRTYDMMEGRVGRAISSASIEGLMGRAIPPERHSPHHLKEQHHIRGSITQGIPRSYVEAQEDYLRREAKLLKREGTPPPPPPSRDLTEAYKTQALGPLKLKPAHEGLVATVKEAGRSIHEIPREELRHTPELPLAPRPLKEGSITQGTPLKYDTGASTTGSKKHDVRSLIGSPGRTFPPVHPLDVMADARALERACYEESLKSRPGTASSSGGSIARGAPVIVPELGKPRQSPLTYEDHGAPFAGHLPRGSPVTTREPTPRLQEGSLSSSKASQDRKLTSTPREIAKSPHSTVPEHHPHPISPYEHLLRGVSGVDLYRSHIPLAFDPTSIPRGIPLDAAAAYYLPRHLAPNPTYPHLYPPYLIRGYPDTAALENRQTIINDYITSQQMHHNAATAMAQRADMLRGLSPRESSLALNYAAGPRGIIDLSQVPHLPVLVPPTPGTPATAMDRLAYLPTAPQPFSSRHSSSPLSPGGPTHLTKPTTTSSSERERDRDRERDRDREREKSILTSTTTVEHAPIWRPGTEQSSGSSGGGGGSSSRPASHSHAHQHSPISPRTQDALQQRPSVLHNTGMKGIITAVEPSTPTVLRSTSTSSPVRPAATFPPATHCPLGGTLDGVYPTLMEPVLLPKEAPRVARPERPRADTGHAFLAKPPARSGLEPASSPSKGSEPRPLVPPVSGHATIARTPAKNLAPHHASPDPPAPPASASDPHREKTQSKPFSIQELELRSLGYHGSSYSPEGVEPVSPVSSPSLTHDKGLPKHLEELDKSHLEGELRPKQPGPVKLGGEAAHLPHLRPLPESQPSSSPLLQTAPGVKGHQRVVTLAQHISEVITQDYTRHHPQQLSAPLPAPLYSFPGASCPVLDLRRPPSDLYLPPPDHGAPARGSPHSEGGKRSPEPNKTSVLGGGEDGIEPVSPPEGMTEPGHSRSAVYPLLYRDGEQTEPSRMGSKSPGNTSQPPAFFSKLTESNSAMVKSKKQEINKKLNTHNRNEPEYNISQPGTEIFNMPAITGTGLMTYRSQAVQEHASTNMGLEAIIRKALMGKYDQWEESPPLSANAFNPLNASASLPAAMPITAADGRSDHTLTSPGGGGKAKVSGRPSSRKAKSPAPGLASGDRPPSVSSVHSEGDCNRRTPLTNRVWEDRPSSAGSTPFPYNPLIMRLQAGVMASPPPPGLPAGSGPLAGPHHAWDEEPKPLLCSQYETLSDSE
Sequence of Induced myeloid leukemia cell differentiation protein Mcl-1 (Q07820 whole entry): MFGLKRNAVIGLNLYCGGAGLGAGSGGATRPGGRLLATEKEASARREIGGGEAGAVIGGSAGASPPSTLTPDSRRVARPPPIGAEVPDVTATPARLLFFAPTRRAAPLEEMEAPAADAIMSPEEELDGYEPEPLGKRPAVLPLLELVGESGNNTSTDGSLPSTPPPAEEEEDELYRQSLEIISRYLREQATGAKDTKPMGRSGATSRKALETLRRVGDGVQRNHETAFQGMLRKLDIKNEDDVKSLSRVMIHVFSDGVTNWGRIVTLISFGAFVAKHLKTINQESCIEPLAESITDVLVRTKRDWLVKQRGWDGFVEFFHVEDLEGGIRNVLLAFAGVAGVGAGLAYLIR
Sequence of Genome polyprotein (P29990 2492-3391 limits assumed): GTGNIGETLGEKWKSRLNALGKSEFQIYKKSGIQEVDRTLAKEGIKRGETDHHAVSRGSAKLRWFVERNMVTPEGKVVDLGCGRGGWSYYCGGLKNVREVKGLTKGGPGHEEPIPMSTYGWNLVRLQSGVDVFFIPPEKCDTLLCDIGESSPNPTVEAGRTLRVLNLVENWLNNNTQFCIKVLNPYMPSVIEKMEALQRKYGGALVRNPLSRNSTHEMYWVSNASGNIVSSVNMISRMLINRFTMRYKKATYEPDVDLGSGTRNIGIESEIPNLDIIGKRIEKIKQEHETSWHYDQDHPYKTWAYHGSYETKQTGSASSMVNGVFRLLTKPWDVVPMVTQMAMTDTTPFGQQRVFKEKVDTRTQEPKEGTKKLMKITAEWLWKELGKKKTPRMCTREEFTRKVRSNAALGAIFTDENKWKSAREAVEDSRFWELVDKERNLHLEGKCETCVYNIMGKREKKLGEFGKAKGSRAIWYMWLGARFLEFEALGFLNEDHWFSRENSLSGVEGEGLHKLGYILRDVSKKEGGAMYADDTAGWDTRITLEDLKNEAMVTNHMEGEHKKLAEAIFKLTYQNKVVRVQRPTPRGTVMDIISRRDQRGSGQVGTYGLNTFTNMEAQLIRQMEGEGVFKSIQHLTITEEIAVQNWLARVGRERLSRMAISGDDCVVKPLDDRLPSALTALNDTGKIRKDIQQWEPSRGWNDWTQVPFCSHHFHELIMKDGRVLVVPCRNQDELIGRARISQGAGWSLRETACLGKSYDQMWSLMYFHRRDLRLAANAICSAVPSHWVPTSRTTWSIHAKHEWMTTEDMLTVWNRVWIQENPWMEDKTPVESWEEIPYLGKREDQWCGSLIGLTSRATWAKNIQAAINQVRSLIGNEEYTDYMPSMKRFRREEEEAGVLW
Sequence of Caspase-7 (P55210 24-198 limits assumed): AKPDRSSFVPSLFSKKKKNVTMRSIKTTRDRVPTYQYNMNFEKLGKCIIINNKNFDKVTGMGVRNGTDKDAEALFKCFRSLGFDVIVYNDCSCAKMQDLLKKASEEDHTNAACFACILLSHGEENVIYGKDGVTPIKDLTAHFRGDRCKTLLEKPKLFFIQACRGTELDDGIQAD
Sequence of Caspase-7 (P55210 207-303 limits assumed): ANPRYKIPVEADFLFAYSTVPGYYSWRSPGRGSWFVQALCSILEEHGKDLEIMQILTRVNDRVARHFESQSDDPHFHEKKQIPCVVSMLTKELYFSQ

## COC(=O)c1cc2c(-c3ccccc3)c(C)c3ccccn3c-2c1C(=O)OC
cells
  IC50: 23.4 µM (active)
[1]
  CC50: 27 µM (active)
[2]
  IC50: 1.31 µM (active)
[3]
  IC50: 2.58 µM (active)
[4]
  IC50: > 1.48 µM (active)

## C=CCn1c(SCC(=O)c2ccc(O)c(O)c2)nnc1-c1cccc(OC)c1
[5]
  EC50: > 100 µM (inactive)
[6]
  IC50: 5.55 µM (active)
[7]
  IC50: 77.7 µM (active)
[8]
  EC50: 100 µM (inactive)
[9]
  EC50: 68 µM (active)
[10]
  IC50: 17.4 µM (active)

## O=c1oc2c(cc1O)oc(=O)c1cc(O)c(O)c(O)c12
[11]
  IC50: > 123 µM (inactive)
[12]
  AC50: 98.7 µM (active)
ORF 73
  AC50: 18.9 µM (active)
[13]
  EC50: 80.5 µM (inactive)
Troponin, cardiac muscle
  IC50: 3.19 µM (active)
Genome polyprotein
  IC50: > 100 µM (active)
[14]
  EC50: > 99 µM (inactive)
Caspase-6
  AC50: 484 nM (active)
[15]
  IC50: > 54 µM (active)
Caspase-7
  AC50: 2.35 µM (active)
[16]
  IC50: > 123 µM (inactive)
